Series [1] in a line: Plasma levels of βBA and AKBA via os in patients (Gerbeth K et al. 2011). Format: in vivo, humans.
The nature of series [2]: Blood concentration of βBA by oral-sublingual vs oral-gastro-intestinal route (FIG. 1). Format: in vivo, humans. The protocol:
FIG. 1. Blood Concentration of βBA Administered by Oral-Sublingual Route Vs. Oral-Gastro-Intestinal Route. • ? 43 a, 58 kg BW • βBA administered both via os and sublingual: 10 mg=172.4 ng/g. • Maximum blood concentration via sublingual route: 95 ng/ml. • Maximum blood concentration via os: 52 ng/ml. • Δos/plasma: 1.82. • Note • 1. […] The explanation is that βBA is an excellent vasodilator, probably through the release of NO nitric oxide [Wang M et al. 2015], synergistic with the other compounds of the composition or association object of the present invention. • 2. […] Note that with the present experiment, the Δos/plasma ratio of 1.82 was the same as that found by Sterk V et al. 2004 (Table 1).

The test system of the next series is synaptophysin. Kind of series: Synaptophysin in PFC and HIPP of mice treated with Aβ icv, Western blotting (FIG. 11). Format: in vivo. The settings on record: after 7 days. As for the experimental part:
The βCP, FE, βBA and HA4 influence on prefrontal and hippocampal synaptic plasticity was evaluated using anti-PSD-95, anti-synaptophysin, anti-CaMKII antibodies.
(§1) The Aβ1-42, obtained from Tocris (Bristol, UK), was dissolved in sterile double-distilled pyrogenic-free water, as vehicle, to obtain a final concentration 4 μM [Colaianna M et al. 2010]. Mice were anesthetized with a solution (0.85 in ml/kg, i.p.), containing ketamine (Sigma Aldrich, Milan, Italy, 100 mg/10 ml), xylazine (Sigma Aldrich, Milan, Italy, 100 mg/10 ml) and acepromazine (prequillant, ATI Azienda Terapeutica Veterinaria Srl, 10 mg/10 ml) dissolved in saline solution. […] At the time of dissection, the correct needle track was assessed. […]
(§2) The total amount of proteins was measured in homogenates by using Pierce BCA Assay (Thermo Fisher Scientific, Cleveland, OH, USA). […] After HRP-conjugated specific antibody incubation, ECL reagent (Bio-Rad Laboratories Inc., Segrate (MI), Italy) was added to the immune complex and chemiluminescence was detected by ChemiDoc MP system (Bio-Rad Laboratories Inc., Segrate (MI), Italy). Optical densities of the bands were measured using Image J software (http://rsb.info.nih.gov/ij/ accessed on 15 Mar. 2021) and normalized against bands relative to -actin (1:5,000, Abcam, Cambridge, UK).
Background: In western blotting, separated proteins are transferred to a membrane and probed.

In another series the test system is noradrenaline (NA). Nature of the series: Norepinephrine (NA) levels in mice treated with Aβ icv (FIG. 5b). Format: in vivo. The settings on record: PFC and HIPP. As for the experimental part:
as §1
All behavioral experiments were conducted at 5 or 30 min after sublingual administrations of βBA or vehicle in mice treated with SHAM or AP. Based on the observed behavioral results, neurochemical and biochemical quantifications were performed 30 min after administration of βCP, FE, and βBA or vehicle in SHAM- or Aβ-treated mice. […]
5-HT, noradrenaline (NA), and KYN levels were measured in the PFC and HIPP of mice by HPLC coupled with an electrochemical detector (Ultimate ECD, Thermo Scientific Dionex, Milan, Italy) as already reported [Francavilla M et al. 2012, Morgese M G et al. 2016]. […] GLU concentrations were determined by HPLC coupled with fluorescence detection (emission length 460 nm; excitation length 340 nm), as previously published [Francavilla M et al. 2012]. […]

The subject of another series is NF-kB. Nature of the series: NF-kB in PFC and HIPP of mice treated with Aβ icv, Western blotting (FIG. 10). The class given is in vivo. The settings on record: after 7 days. As for the experimental part: as §1, §2
For series [3] the following is noted: patients, via os; cited from earlier work.

Several values for one entry are separate records, joined by “and”; a condition that tells them apart may be missing. Equal values may be shown once.

Turning to `C[C@H]1[C@H](C)CC[C@]2(C)CC[C@]3(C)C(=CC[C@@H]4[C@@]5(C)CC[C@@H](O)[C@](C)(C(=O)O)[C@@H]5CC[C@]43C)[C@H]12` [βBA, β-boswellic acid], the Δos/plasma in series [1] is 14.3; in series [2] (sublingual administration), 1.81 and 1.82; in series [2] (via os administration) it was 2.97. Moreover, the “Maximum blood concentration via sublingual route” value in series [2] (one person, 58 kg BW, 10 mg=172.4 ng/g, sublingual) was 95 ng/mL. Also, the “Maximum blood concentration via os” value in series [2] (one person, 58 kg BW, 10 mg=172.4 ng/g, via os) was determined as 52 ng/mL. Also, in series [2] (via os), the “reduction in blood concentration with respect to the administered dose” value is 67% and 70%. Also, in the series with synaptophysin, the synaptophysin tissue concentration result is listed as “remove Ap-induced alterations”. Moreover, the “Norepinephrine (NA) levels” value in the series on noradrenaline (NA) was “removes the reduction of NA induced by Aβ treatment and increases its expression in both PFC and HIPP compared with the control group”. Besides, the NF-kB tissue concentration result in the series with NF-kB is reported as “progressive removal of the pro-inflammatory effect induced by Aβ”. The “concentration in the plasma” value in series [3] is on record as 2,236 ng/g o ng/ml.

The values are drawn from patent US20260115162A1, “COMPOSITION OR ASSOCIATION OF COMPOUNDS PREFERABLY FOR USE IN THE TREATMENT OF NERVOUS DISEASES IN PARTICULAR NEURODEGENERATIVE DISEASES, METHOD FOR THE PREPARATION OF SUCH COMPOSITION OR ASSOCIATION OF COMPOUNDS AND USES THEREOF” (PHARMACEUTICA SAN MARCO S.R.L., priority 2022, published 2026).
